Earlier results in patent US20050031690A1, “Stabilized prostaglandin formulation” (Pharmacia Corporation, priority 2003, published 2005).

Details: solution state

- pH region of relative stability: 3-4
SMILES: CCCCC[C@H](O)/C=C/[C@H]1[C@H](O)CC(=O)[C@@H]1CCCCCCC(=O)O [prostaglandin E1]
